Data: ChEMBL document CHEMBL1137694, “Predicting anti-HIV activity of 1,3,4-thiazolidinone derivatives: 3D-QSAR approach” (Eur J Med Chem, 2009)

Tested on: Human immunodeficiency virus
Experiment: Antiviral activity against HIV assessed as reduction in virus-induced cytopathic effect by XTT assay
Assay type: functional, organism-based
Conditions: Human immunodeficiency virus 1, read-out: pEC50 (converted)

SMILES | EC50
Cc1cc(C)nc(N2C(=O)CSC2c2c(Cl)cccc2Cl)c1 (configuration not stated) | 89.8 nM
COc1cc(C)nc(N2C(=O)CSC2c2c(F)cccc2Cl)n1 (configuration not stated) | 55.9 nM
O=C1CSC(c2c(F)cccc2F)N1c1cccnc1 (configuration not stated) | 10.5 nM
Cc1cc(C)nc(N2C(=O)CSC2c2c(Cl)cccc2Cl)n1 (configuration not stated) | 17 nM
O=C1CSC(c2c(F)cccc2F)N1c1cccc(Br)n1 (configuration not stated) | 29.9 nM
CC1CC(C)C1N1C(=O)CSC1c1c(F)cccc1Cl (configuration not stated) | 85.7 nM
Cc1cc(C)nc(N2C(=O)CSC2c2c(F)cccc2Cl)n1 (configuration not stated) | 37.9 nM
CC1CCC1N1C(=O)CSC1c1c(Cl)cccc1Cl (configuration not stated) | 79.8 nM
Cc1cc(C)nc(N2C(=O)CSC2c2c(F)cccc2F)c1 (configuration not stated) | 58.9 nM
COc1cc(C)nc(N2C(=O)CSC2c2c(Cl)cccc2Cl)n1 (configuration not stated) | 23.9 nM
COc1cccc(F)c1C1SCC(=O)N1c1cc(Br)ccn1 (configuration not stated) | 33.9 nM
Cc1cc(Cl)nc(N2C(=O)CSC2c2c(Cl)cccc2Cl)n1 (configuration not stated) | 19.3 nM
Cc1cccc(N2C(=O)CSC2c2c(Cl)cccc2Cl)n1 (configuration not stated) | 43.9 nM
COc1cccc(OC)c1C1SCC(=O)N1c1cc(Br)ccn1 (configuration not stated) | 44.9 nM
O=C1CSC(c2c(F)cccc2Cl)N1c1cccc(Br)n1 (configuration not stated) | 63.9 nM
Cc1cccnc1N1C(=O)CSC1c1c(F)cccc1F (configuration not stated) | 18.7 nM
Cc1ccnc(N2C(=O)CSC2c2c(Cl)cccc2Cl)n1 (configuration not stated) | 43.9 nM
Cc1cccc(N2C(=O)CSC2c2c(F)cccc2F)n1 (configuration not stated) | 81.9 nM
Cc1cccc(N2C(=S)CSC2c2c(Cl)cccc2Cl)n1 (configuration not stated) | 86.9 nM
COc1cccc(OC)c1C1SCC(=O)N1c1cc(C)ccn1 (configuration not stated) | 49.9 nM
COC1CCC1N1C(=O)CSC1c1c(F)cccc1F (configuration not stated) | 84.6 nM
Cc1cc(O)nc(N2C(=O)CSC2c2c(Cl)cccc2Cl)n1 (configuration not stated) | 30.4 nM
